In US20030114358A1, “Use of compatible solutes as inhibitors of the enzymatic decomposition of macromolecular biopolymers” (priority 2000, published 2003):

Assays:
Format in all cases: biochemical
pepsin = pepsin (Homo sapiens, UniProt P0DJD8); assay: Pepsin activity by spectrophotometry on hydrolysis of a synthetic hexapeptide; conditions: substrate Leu-Ser-p-NitroPhe-Nle-Ala-Leu methyl ester; enzyme-kinetic measurements
Experimental: In principle, the experiments allow for two possible explanations. On the one hand, the compatible solutes could inhibit the protease. On the other hand, the solute could prevent the attack of the protease according to the invention for steric reasons through stabilization of the native, more compact conformation of the antibody molecule. Therefore, the effect of ectoine and hydroxyectoine on the activity of pepsin was determined by spectrophotometry on the hydrolysis of a synthetic low-molecular weight hexapeptide [E. Schinaith: Clin. Biochem. 22, 91-98 (1989)]. […] This is a clear indication of the fact that the inhibition of the antibody proteolyses is to be attributed to steric effects according to the invention.

[1] = tested on: heavy chains of a human antibody (IgG); assay: Limited proteolysis of human IgG by pepsin, quantified in 12% SDS gels; conditions: 0.5 M solute; 0.5 mg/ml antibody, 5 μg/ml pepsin, 37° C., 100 mM sodium acetate pH 3; FIG. 1
Experimental: Limited proteolyses of human IgG were performed at an antibody concentration of 0.5 mg/ml and a pepsin concentration of 5 μg/ml at 37° C. in 100 mM sodium acetate, pH 3. The incubations were performed without additions under 0.5 M ectoine, under 0.5 M hydroxyectoine, and under a mixture of 0.25 M ectoine and 0.25 M hydroxyectoine. The course of the limited proteolyses was quantified subsequent to the incubations in 12% SDS gels under reducing conditions.
Lanes 1, 5, 9: with water; lanes 2, 6, 10: with ectoine; lanes 3, 7, 11: with ectoine and hydroxyectoine; lanes 4, 8, 12; with hydroxyectoine; lanes 1, 2, 3, 4: without incubation; lanes 5, 6, 7, 8: after 15 min of incubation; lanes 9, 10, 11, 12: after 180 min of incubation.

[2] = tested on: peroxidase-conjugated rabbit anti-mouse antibody; assay: ELISA residual signal after pepsin pretreatment of peroxidase conjugate; conditions: two hours at 37° C.
Experimental: The inhibition by ectoine of the proteolysis of antibodies was additionally shown by enzyme-linked immunosorbent assay (ELISA). Thus, 96-well ELISA plates were coated over night with 0.5 μg of human IgG in 100 μl of 0.9% NaCl at 4° C. Subsequently, the plates were washed three times in 50 mM Tris, 0.8% NaCl, 0.020% KCl, pH 7.4, C(T-TBS), and blocked with 200 μl of 1% gelatin in TBS for 2 hours at 37° C. After three washes in T-TBS, an incubation was performed with monoclonal mouse anti-human IgG diluted 1:250 in TBS at 50 μl per well for one hour at 37° C. After four washes with T-TBS, incubation was performed with a peroxidase-conjugated rabbit anti-mouse antibody diluted 1:5000 in TBS at 100 μl per well for one hour at 37° C. After four additional washes, the enzyme reaction was performed by adding 100 μl of substrate per well. As the substrate was used 4.8 mg of phenylene diamine in 3 ml of 0.2 M Na2HPO4, 3 ml of 0.1 M citric acid, 6 ml of water, and 5 μl of H2O2. The reaction was stopped after about 10 minutes by acidification with 100 μl per well of 0.07 M sulfuric acid, and the plates were quantified in an ELISA autoreader. Prior to the experiment, all three protein components were proteolyzed by pepsin for two hours at 37° C. with or without the addition of 0.5 M ectoine. […] The antibody conjugate was not attacked by pepsin. […]

human IgG = assay: ELISA residual signal after pepsin pretreatment of human IgG; conditions: for Residual signal in ELISA, pretreated antibody human IgG: two hours at 37° C.
Experimental: (§1) The inhibition by ectoine of the proteolysis of antibodies was additionally shown by enzyme-linked immunosorbent assay (ELISA). Thus, 96-well ELISA plates were coated over night with 0.5 μg of human IgG in 100 μl of 0.9% NaCl at 4° C. Subsequently, the plates were washed three times in 50 mM Tris, 0.8% NaCl, 0.020% KCl, pH 7.4, C(T-TBS), and blocked with 200 μl of 1% gelatin in TBS for 2 hours at 37° C. After three washes in T-TBS, an incubation was performed with monoclonal mouse anti-human IgG diluted 1:250 in TBS at 50 μl per well for one hour at 37° C. After four washes with T-TBS, incubation was performed with a peroxidase-conjugated rabbit anti-mouse antibody diluted 1:5000 in TBS at 100 μl per well for one hour at 37° C. After four additional washes, the enzyme reaction was performed by adding 100 μl of substrate per well. As the substrate was used 4.8 mg of phenylene diamine in 3 ml of 0.2 M Na2HPO4, 3 ml of 0.1 M citric acid, 6 ml of water, and 5 μl of H2O2. The reaction was stopped after about 10 minutes by acidification with 100 μl per well of 0.07 M sulfuric acid, and the plates were quantified in an ELISA autoreader. Prior to the experiment, all three protein components were proteolyzed by pepsin for two hours at 37° C. with or without the addition of 0.5 M ectoine. […] The antibody conjugate was not attacked by pepsin. The treatment was performed in an analogous manner with hydroxyectoine, proline and betaine.

[3] = tested on: monoclonal mouse anti-human IgG; assay: ELISA residual signal after pepsin pretreatment of monoclonal mouse antibody; conditions: for Residual signal in ELISA, pretreated antibody monoclonal mouse antibody: two hours at 37° C.
Experimental: as §1

[4] = with ectoine (0.5 M) and pepsin
[5] = with ectoine (0.5 M), without pepsin

Chain of pepsin (P0DJD8 63-388): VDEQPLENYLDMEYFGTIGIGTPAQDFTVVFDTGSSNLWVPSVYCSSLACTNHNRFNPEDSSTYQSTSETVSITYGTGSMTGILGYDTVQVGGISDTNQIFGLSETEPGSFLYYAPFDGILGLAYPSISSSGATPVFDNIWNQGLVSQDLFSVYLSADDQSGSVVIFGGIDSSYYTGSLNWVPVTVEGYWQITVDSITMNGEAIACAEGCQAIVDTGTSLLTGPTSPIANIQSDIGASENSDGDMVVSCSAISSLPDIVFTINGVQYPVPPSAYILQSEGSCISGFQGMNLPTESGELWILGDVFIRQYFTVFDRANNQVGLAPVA

Row | Compound | inhibition of the protease pepsin (pepsin) | hydrolysis of the heavy chain of human IgG by pepsin [1] | Residual signal in ELISA, pretreated antibody peroxidase conjugate [2, 4] [%] | Residual signal in ELISA, pretreated antibody peroxidase conjugate [2, 5] [%] | protection of human IgG against proteolytic digest by pepsin (human IgG; 0.5 M ectoine, ELISA) | Residual signal in ELISA, pretreated antibody human IgG (human IgG; [4]) [%] | Residual signal in ELISA, pretreated antibody human IgG (human IgG; [5]) [%] | protection of monoclonal mouse antibody against proteolytic digest by pepsin ([3]; 0.5 M ectoine, ELISA) | Residual signal in ELISA, pretreated antibody monoclonal mouse antibody [3, 4] [%] | Residual signal in ELISA, pretreated antibody monoclonal mouse antibody [3, 5] [%]
1 | CC1=NC[C@H](O)[C@@H](C(=O)O)N1 [hydroxyectoine] | neither ectoine nor hydroxyectoine inhibits the protease | inhibited significantly |  |  |  |  |  |  |  | 
2 | CC1=NCC[C@@H](C(=O)O)N1 [ectoine] | neither ectoine nor hydroxyectoine inhibits the protease | inhibited significantly | 121 | 98 | effectively protected | 91 | 85 | effectively protected | 98 | 97
